Assay results: patent publication EP0546661A1, “Pyrimidine derivatives, method for preparation thereof and pharmaceutical composition having said derivatives as active elements” (JAPAN ENERGY CORPORATION, priority 1991, dated 1993)
Read-outs that look alike come from different tables or passages of the source.

Tests used:
[1] = system: rat; settings: cited from earlier work
[2] = system: bronchis of Hartle guinea pigs; assay: Dilating action of bronchia by Schultz-dale reaction
Procedure: The specimens were prepared by removing the bronchis of Hartle guinea pigs after sensitizing them with egg white albumin and terminating them by blood releasing under ether anesthesia. Each specimen was hanged down in the Magnus vessel filled with Tyrode's solution (saturated with gas composed of 95% oxygen and 5% carbon dioxide by bubbling at pH 7.4 and at […]). A tension of 1g was loaded to the specimen. After the tension became constant, histamine was added to the final concentration of 2 x 10⁻⁷ g/ml to cause the specimen to contract. The specimen was taken out from the vessel, washed thoroughly and hanged down in a different Magnus vessel filled with egg white albumin, of which final concentration was 1 x 10⁻⁵ g/ml, to cause the specimen to contract. […] As a control, theophylline in 0.1% dimethylsulphoxide aqueous solution was used. The efficacy of the test compounds was described by the suppression rate, in percentage, calculated from the contraction value obtained after the addition of the test compound, defining the contraction value caused by the egg white albumin before the addition of the test compound as 100 %.

[3] = Scavenging activity of hydroxy radicals (linolenic acid peroxidation, absorbance at 234 nm); type: biochemical; settings: test compound concentration 10 µM
Procedure: Scavenging activity of hydroxy radicals were confirmed according to the method of Kharasch et al. [J. Biol. Chem., 260, 106452 (1985)]. The method is as follows. The reactions were started by adding 80 µM iron chloride (II) to the reaction mixture containing test compounds, 30 mM sodium chloride, 1.0 mM linolenic acid, 0.08% rubrol and 100 µM hydrogen peroxide in 1% N,N-dimethylformamide aqueous solution. The time course of peroxidation reaction caused by the action of hydroxy radicals to linolenic acid were monitored by measuring the change of absorbance at 234 nm reflecting the generation of conjugate double bond, and thus the disappearance of the hydroxy radicals by test compounds was measured. The reaction suppression rates of test compounds at their concentration of 10 µM were calculated and the values are listed in Table 5 below.

[4] = system: male SD rats; assay: Ulcer forming activity; type: in vivo; settings: oral 10 mg/kg once daily for 5 days; 10 rats per group; stomach ulcers observed after 24 hours fasting
Procedure: The test compounds were orally administered to male SD rats, 10 per a group, at the dosage of 10 mg/kg, once daily for 5 days. After the final administration, rats were fasted for 24 hours and killed by blood releasing under ether anesthesia. The stomachs were taken out and the presence of ulcers were observed.
The same experiments were done with control compounds, E-5110 [Arznein Forsch. Drug Res., 37, 930 (1987), ibid, 37, 936 (1987)] abd diclofenac.

[5] = system: male SD rats; assay: Carageenin induced paw edema; type: in vivo; settings: oral, 1 hour before carageenin, paw volume 3 hours after carageenin, suppression of edema forming rate
Procedure: The test compounds were orally administered to male SD rats, 10 per a group, which were fasted for 24 hours prior to the administration, and after one hour, 0.1 ml of 1% λ-carageenin (Picnin A, Zushi Chemical Co., Ltd.) in saline was injected subcutaneously into the right hind paw. The paw volumes were measured plethysmographically at before and 3 hours after the carageenin administration. Defining the paw volume before the injection of the λ-carageenin as the basal volume, the edema forming rates were calculated by the following equation. Edma Forming Rate(%) =((Paw volume after carageenin injection) - (Paw volume before carageenin injection))/(Paw volume before carageenin injection)x 100 [formula]
Compounds shown in the examples 1 -3 and 5 were tested and diclofenac was used as controls.

[6] = system: SD rats; assay: Repeated administration toxicity in SD rats; type: in vivo; settings: 500 mg/kg, repeatedly for 2 weeks
Description: Theophylline is known to have high toxicity and its LD₅₀ is about […] in rat. […]

[7] = system: male mongolian gerbils; assay: Brain edema (carotid artery occlusion and re-perfusion); type: in vivo; settings: 2 mg/kg intraperitoneally 15 minutes before occlusion; 3 hours ischemia, 3 hours re-perfusion; 6 per group
Procedure: The total left carotid artery of male mongolian gerbils were separated from surrounding tissues and exposed under the Halosen anesthesia, and when awakened from the anesthesia, the total left carotid arteries were occuled by a aneurysm forming clip. […] The next day, the total left caroted artery of the selected animals, 6 per a group, were re-exposed under the Halosen anesthesia, and when these animals were awakened, the test compounds were administered intraperitoneally (2 mg/kg), followed by occluding the left total carotid artery by a aneurysm forming clip 15 minutes after the administration. After 3 hours ischemla, the clips were removed to re-perfusion. The animals were guillotined at 3 hours after the re-perfusion, immediately followed by removing out the brains, separated their left and right parts at its median line and measured each brain weights. The brains were dried in the dry heat sterilizer at 100°C for 3 days, and measured each brain weights.
Here, for the comparison, experiments with only surgical operations and stitchings were done as a operation only group, and experiments with only surgical operations, clip blockigs and stitchings and without the administration of the test compounds were done as a control group.

Compound	Suppression Rate (%) [3] [%]	Ulcer Cases [4]	IC50 ([2]; Cavia porcellus) [µM]	Suppression Rate (%) ([5]; dose 2 mg/kg)	also measured
Cn1c(=O)c2[nH]cnc2n(C)c1=O [Theophylline, reference compound]					LD₅₀ [1]: about 300 mixing; IC50 ([2]; Cavia porcellus, suppression of egg white albumin (1 x 10⁻⁵ g/ml) induced contraction of sensitized guinea pig bronchi, read-out: IC50): 35 µM
CC(C)(C)c1cc(C=C2C(=O)NC(=O)N(C3CCCCC3)C2=O)cc(C(C)(C)C)c1O [Example 5, 1-cyclohexyl-5-(3,5-di-tert-butyl-4-hydroxybenzylidene)-pyrimidine-2,4,6-trione]	31	0/10	59	24	
CCCCN1C(=O)NC(=O)C(=Cc2cc(C(C)(C)C)c(O)c(C(C)(C)C)c2)C1=O [Example 4, 1-butyl-5-(3,5-di-tert-butyl-4-hydroxybenzylidene)-pyrimidine-2,4,6-trione]	18	0/10	43		
CON1CC/C(=C\c2cc(C(C)(C)C)c(O)c(C(C)(C)C)c2)C1=O [Example E-5110, reference compound]		3/10			
CCN1C(=O)C(=Cc2cc(C(C)(C)C)c(O)c(C(C)(C)C)c2)C(=O)N(CC)C1=O [Example 2, 1,3-diethyl-5-(3,5-di-tert-butyl-4-hydroxybenzylidene)-pyrimidine-2,4,6-trione]	15		67	32	
CN1C(=O)C(=Cc2cc(C(C)(C)C)c(O)c(C(C)(C)C)c2)C(=O)N(c2ccccc2)C1=O [Example 1, 1-methyl-3-phenyl-5-(3,5-di-tert-butyl-4-hydroxybenzylidene)-pyrimidine-2,4,6-trione]	59	0/10	50	48	abnormal symptoms [6]: no abnormal symptoms were observed
O=C(O)Cc1ccccc1Nc1c(Cl)cccc1Cl [Diclofenac, reference compound]		2/10			Suppression Rate (%) ([5]; dose 10 mg/kg): 51%
CC(C)(C)c1cc(C=C2C(=O)NC(=O)N(c3ccccc3)C2=O)cc(C(C)(C)C)c1O [Example 6, 1-phenyl-5-(3,5-di-tert-butyl-4-hydroxybeniylidene)-pyrimidine-2,4,6-trione]	25	0/10			IC50 ([2]; suppression of egg white albumin (1 x 10⁻⁵ g/ml) induced contraction of sensitized guinea pig bronchi, read-out: IC50): 44 µM
CC(C)(C)c1cc(C=C2C(=O)N(C3CCCCC3)C(=O)N(C3CCCCC3)C2=O)cc(C(C)(C)C)c1O [Example 3, 1,3-dicyclohexyl-5-(3,5-di-tert-butyl-4-hydroxybenzylidene)-pyrimidine-2,4,6-trione]		1/10	57	11	
Cc1ccc(N2C(=O)C(=Cc3cc(C(C)(C)C)c(O)c(C(C)(C)C)c3)C(=O)N(c3ccc(C)cc3)C2=O)cc1 [Example 7, 1,3-di-p-tolyl-5-(3,5-di-tert-butyl-4-hydroxybenzylidene)-pyrimidine-2,4,6-trione]	60		39		water contents, Normal Side [7]: 79.64 ± 0.09; water contents, Occlusion Side [7]: 79.94 ± 0.33
